Four molecules from ChEMBL document CHEMBL5260810, “Inhibition of bromodomain-containing protein 9 for the prevention of epigenetically-defined drug resistance” (Bioorg Med Chem Lett, 2017) can be followed below.

The test system of one assay is NCI-H2405. Briefly: Cytotoxicity against human NCI-H2405 cells measured after 8 days. In kind it is functional, cell-based. To be noted: NCI-H2405, 192 h.
For another assay, the system named is SCC-3. Description: Cytotoxicity against human SCC-3 cells measured after 8 days. It counts as functional, cell-based. To be noted: SCC-3, 192 h.
Assay [1] in a line: Cytotoxicity against human RERF-LC-OK cells measured after 8 days. In kind it is functional, cell-based. Particulars: 192 h.
A further assay has as its system NCI-H650. Briefly: Cytotoxicity against human NCI-H650 cells measured after 8 days. To be noted: NCI-H650, 192 h. It counts as functional, cell-based.
Assay [2] concerns the target T1, 5-hydroxytryptamine receptor 1A (Homo sapiens) (UniProt P08908).
T1 sequence (whole entry): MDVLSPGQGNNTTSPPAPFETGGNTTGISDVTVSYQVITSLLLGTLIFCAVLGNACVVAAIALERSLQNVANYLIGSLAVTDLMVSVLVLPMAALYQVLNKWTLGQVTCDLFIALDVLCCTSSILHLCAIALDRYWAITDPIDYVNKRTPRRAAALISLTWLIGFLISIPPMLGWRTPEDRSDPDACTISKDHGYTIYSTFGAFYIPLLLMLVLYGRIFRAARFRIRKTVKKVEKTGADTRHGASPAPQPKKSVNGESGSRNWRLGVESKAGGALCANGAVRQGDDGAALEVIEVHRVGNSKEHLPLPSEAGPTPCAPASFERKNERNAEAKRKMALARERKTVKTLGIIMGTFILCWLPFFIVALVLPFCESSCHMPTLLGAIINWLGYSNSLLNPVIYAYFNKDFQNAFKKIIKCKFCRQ
Briefly: Displacement of [3H]8-OH-DPAT from recombinant human 5-HT1A receptor at 10 uM after 60 mins by scintillation counting analysis relative to control. For orientation: In a radioligand displacement assay an active substance lowers the binding of a labelled ligand.

The target in assay [3] is Macrophage colony-stimulating factor 1 receptor (Homo sapiens) (UniProt P07333). Briefly: Inhibition of CSF1R (unknown origin) at 1 uM relative to control.
Macrophage colony-stimulating factor 1 receptor (Homo sapiens), sequence (P07333 whole entry): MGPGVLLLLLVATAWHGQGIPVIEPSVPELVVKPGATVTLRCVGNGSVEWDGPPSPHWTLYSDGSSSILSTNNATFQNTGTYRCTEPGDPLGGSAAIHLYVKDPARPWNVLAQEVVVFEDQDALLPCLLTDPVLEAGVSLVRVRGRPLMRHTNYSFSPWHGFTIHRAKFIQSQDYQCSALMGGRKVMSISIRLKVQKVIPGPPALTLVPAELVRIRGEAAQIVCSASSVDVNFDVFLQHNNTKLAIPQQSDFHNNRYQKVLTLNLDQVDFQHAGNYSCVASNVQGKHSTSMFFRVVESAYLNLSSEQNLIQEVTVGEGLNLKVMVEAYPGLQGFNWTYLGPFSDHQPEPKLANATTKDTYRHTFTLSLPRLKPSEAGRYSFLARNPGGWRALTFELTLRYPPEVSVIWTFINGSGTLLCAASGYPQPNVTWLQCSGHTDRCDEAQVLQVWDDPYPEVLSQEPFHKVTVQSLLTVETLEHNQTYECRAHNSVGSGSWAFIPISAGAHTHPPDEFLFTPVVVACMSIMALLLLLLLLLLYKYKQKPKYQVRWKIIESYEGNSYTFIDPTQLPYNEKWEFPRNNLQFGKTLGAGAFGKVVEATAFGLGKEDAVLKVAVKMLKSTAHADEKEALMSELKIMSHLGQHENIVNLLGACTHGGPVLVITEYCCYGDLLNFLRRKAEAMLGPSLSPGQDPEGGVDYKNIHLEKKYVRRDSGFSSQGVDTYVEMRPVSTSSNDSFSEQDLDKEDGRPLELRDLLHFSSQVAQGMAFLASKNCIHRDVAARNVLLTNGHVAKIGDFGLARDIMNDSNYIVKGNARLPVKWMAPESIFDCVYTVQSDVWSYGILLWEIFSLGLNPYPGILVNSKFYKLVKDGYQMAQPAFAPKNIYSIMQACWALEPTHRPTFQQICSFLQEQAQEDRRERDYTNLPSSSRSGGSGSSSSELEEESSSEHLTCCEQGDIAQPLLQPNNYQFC
The next assay relates to KARPAS-422. Description: Cytotoxicity against human KARPAS-422 cells measured after 8 days. Particulars: KARPAS-422, 192 h. It counts as functional, cell-based.
In a further assay the test system is SK-BR-3. Briefly: Cytotoxicity against human SK-BR-3 cells measured after 8 days. Particulars: SK-BR-3, 192 h. It counts as functional, cell-based.
The target of assay [4] is Serine/threonine-protein kinase SIK2 (Homo sapiens) (UniProt Q9H0K1). Description: Inhibition of SIK2 (unknown origin) at 1 uM relative to control.
Serine/threonine-protein kinase SIK2 (Homo sapiens), sequence (Q9H0K1 whole entry, looked up): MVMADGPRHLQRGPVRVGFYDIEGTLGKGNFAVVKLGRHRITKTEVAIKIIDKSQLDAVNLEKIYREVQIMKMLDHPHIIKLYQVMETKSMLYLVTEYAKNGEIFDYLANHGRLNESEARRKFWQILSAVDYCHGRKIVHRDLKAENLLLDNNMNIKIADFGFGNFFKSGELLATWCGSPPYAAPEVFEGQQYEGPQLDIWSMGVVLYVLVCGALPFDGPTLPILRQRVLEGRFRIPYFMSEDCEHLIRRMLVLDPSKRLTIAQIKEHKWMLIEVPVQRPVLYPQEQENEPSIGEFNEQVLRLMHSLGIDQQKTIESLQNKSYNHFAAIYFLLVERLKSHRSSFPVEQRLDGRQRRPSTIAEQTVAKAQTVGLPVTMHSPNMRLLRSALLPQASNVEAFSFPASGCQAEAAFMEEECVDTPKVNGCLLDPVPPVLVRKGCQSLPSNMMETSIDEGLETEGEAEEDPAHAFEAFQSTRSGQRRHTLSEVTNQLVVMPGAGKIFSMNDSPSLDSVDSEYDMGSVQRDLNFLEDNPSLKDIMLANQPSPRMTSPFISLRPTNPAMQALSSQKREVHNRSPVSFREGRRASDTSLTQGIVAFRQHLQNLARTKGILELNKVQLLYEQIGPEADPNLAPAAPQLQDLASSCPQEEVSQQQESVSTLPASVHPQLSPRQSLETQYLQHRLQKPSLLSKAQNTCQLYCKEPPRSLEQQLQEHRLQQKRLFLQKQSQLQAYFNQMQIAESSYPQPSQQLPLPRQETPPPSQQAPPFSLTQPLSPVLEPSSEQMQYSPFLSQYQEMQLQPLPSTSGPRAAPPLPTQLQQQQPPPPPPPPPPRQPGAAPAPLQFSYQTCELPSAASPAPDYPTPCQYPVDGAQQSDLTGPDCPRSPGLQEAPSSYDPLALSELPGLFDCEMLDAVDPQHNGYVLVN
In another assay the test system is HCT-15. Description: Cytotoxicity against human HCT-15 cells measured after 8 days. In kind it is functional, cell-based. To be noted: HCT-15, 192 h.
In assay [5] the target is T2, Transcription intermediary factor 1-alpha (Homo sapiens, UniProt O15164).
T2 sequence (O15164 whole entry): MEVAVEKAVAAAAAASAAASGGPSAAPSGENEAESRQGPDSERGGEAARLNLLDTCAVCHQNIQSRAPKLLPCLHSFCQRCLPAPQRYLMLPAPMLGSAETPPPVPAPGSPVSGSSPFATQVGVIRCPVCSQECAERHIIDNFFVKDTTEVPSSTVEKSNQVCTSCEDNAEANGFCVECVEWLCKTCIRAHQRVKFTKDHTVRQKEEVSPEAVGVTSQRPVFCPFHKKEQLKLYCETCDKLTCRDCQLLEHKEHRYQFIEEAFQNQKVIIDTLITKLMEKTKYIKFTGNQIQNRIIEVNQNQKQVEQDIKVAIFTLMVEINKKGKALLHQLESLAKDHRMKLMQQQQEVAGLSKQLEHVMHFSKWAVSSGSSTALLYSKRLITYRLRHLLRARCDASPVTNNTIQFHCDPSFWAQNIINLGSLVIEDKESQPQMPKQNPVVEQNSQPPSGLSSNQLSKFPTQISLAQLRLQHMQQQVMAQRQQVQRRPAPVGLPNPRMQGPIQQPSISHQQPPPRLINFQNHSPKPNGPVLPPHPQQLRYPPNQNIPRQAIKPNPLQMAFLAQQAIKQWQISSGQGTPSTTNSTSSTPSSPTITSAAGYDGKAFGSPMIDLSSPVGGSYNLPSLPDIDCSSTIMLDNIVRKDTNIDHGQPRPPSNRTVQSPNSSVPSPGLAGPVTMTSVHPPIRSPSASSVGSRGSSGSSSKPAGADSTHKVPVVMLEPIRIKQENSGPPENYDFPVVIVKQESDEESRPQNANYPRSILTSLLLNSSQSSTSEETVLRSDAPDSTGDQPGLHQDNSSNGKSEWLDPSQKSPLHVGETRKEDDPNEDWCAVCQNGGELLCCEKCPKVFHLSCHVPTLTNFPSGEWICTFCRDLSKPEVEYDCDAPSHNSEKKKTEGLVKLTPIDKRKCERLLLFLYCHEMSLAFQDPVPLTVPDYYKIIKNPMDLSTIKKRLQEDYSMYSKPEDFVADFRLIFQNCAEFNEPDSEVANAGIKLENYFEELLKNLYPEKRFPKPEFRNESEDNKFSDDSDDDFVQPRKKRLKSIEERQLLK
Briefly: Binding affinity to human partial length TRIM24 (P790 to P977 residues) expressed in bacterial expression system by BROMOscan assay.

Assay [6] deals with D(2) dopamine receptor (Homo sapiens) (UniProt P14416). Briefly: Displacement of [3H]7-OH-DPAT from human recombinant dopamine D2S receptor at 10 uM after 60 mins by scintillation counting analysis relative to control.
D(2) dopamine receptor (Homo sapiens), sequence (P14416 whole entry): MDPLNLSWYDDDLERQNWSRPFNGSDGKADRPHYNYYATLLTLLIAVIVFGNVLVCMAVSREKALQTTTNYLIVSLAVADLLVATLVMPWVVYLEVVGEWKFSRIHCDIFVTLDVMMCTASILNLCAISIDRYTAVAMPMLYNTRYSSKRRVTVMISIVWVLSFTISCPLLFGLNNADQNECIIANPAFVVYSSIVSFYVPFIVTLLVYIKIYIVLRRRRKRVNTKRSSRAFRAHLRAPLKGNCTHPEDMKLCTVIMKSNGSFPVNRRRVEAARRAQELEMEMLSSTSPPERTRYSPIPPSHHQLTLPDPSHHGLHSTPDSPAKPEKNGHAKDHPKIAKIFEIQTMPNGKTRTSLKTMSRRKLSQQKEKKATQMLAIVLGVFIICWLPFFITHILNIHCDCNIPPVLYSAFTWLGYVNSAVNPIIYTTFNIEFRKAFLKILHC
For another assay, the system named is NCI-H522. Briefly: Cytotoxicity against human NCI-H522 cells measured after 8 days. In kind it is functional, cell-based. Particulars: NCI-H522, 192 h.
The next assay concerns SK-MEL-28. Briefly: Cytotoxicity against human SK-MEL-28 cells measured after 8 days. In kind it is functional, cell-based. Particulars: SK-MEL-28, 192 h.
Another assay concerns TOV21G. Description: Cytotoxicity against human TOV-21G cells measured after 8 days. In kind it is functional, cell-based. To be noted: 192 h.
The test system of the next assay is 8505C. Briefly: Cytotoxicity against human 8505C cells measured after 8 days. In kind it is functional, cell-based. Particulars: 192 h.
Assay [7] is described as follows: Cytotoxicity against human HEC-6 cells measured after 8 days. In kind it is functional, cell-based. To be noted: HEC-6, 192 h.
The test system of the next assay is PANC-03-27. Briefly: Cytotoxicity against human Panc 03.27 cells measured after 8 days. In kind it is functional, cell-based. To be noted: PANC-03-27, 192 h.
A short description of assay [8]: Cytotoxicity against human KATO III stomach cancer cell line measured after 8 days. In kind it is functional, cell-based. Particulars: 192 h.
Assay [9] is described as follows: Cytotoxicity against human COV434 cells measured after 8 days. In kind it is functional, cell-based. To be noted: COV434, 192 h.
Assay [10] in a line: Cytotoxicity against human HCC850 cells measured after 8 days. In kind it is functional, cell-based. Particulars: HCC850, 192 h.
The next assay deals with COLO-800. Description: Cytotoxicity against human COLO-800 cells measured after 8 days. In kind it is functional, cell-based. To be noted: COLO-800, 192 h.
For the next assay, the system named is BT-20. Briefly: Cytotoxicity against human BT-20 cells measured after 8 days. In kind it is functional, cell-based. To be noted: BT-20, 192 h.
The test system of a further assay is SNG-M. Description: Cytotoxicity against human SNG-M cells measured after 8 days. It counts as functional, cell-based. Particulars: 192 h.
A short description of assay [11]: Cytotoxicity against human HCS-2 cells measured after 8 days. It counts as functional, cell-based. Particulars: HCS-2, 192 h.
In a further assay the test system is TK-10. Description: Cytotoxicity against human TK-10 cells measured after 8 days. It counts as functional, cell-based. Particulars: TK-10, 192 h.
A further assay deals with LN-18. Briefly: Cytotoxicity against human LN-18 cells measured after 8 days. It counts as functional, cell-based. Particulars: LN-18, 192 h.
A further assay has as its system KMS-12-PE. Briefly: Cytotoxicity against human KMS-12-PE cells measured after 8 days. Particulars: 192 h. In kind it is functional, cell-based.
The subject of a further assay is NCI-H929. Briefly: Cytotoxicity against human NCI-H929 cells measured after 8 days. In kind it is functional, cell-based. Particulars: NCI-H929, 192 h.
Assay [12] can be described thus: Cytotoxicity against human MMAc cells measured after 8 days. In kind it is functional, cell-based. Particulars: 192 h.

The term pIC50 denotes the IC50 on a negative log10 scale, so that one unit is a factor of ten. What is called inhibition is the change of the read-out against control, counted positive when it falls. Low readings indicate a response near the control, high ones a response far below the control. As usually defined, the pKd is the negative decadic logarithm of the Kd, by convention in mol/L.

pIC50, pKd: −log10 of the molar value.

For `C/C=C/Cn1cc(-c2cc(OC)c(C(=O)N3CCOCC3)cc2OC)c2cc(C)[nH]c2c1=O`, the pIC50 (in the assay on NCI-H2405; in the assay with SCC-3; in [1]; in the assay on NCI-H650; in the assay on KARPAS-422; with SK-BR-3) was 5.70 throughout. Moreover, the pIC50 in the assay on HCT-15, in the assay with NCI-H522 and in the assay on SK-MEL-28 was 5.70 in each case. Further, the Activity in assay [2] is 6%; in [6] it was 13%. The inhibition in [3] came to 6.5%; in assay [4] it was 1.5%. This molecule had a pKd in [5] of under 5.00.
On to `C/C=C/Cn1cc(-c2ccc(C(C)(C)O)cc2OC)c2cc[nH]c2c1=O`, for which the negative logarithm of the IC50 (pIC50) (in the assay with TOV21G; in the assay on 8505C; in assay [7]; in the assay with NCI-H2405; in the assay with PANC-03-27; in [8]) was 4.70 throughout. For the same molecule, the pIC50 (in the assay with SCC-3; in assay [9]; in assay [10]; in [1]; in the assay with COLO-800; with NCI-H650) was 4.70 throughout. Also, the negative logarithm of the IC50 (pIC50) in the assay with BT-20 was 4.70; in the assay on SNG-M, 4.70; in [11], 4.70; with TK-10, 4.70; with KARPAS-422, 4.70; in the assay with LN-18 it was 4.86. For the same molecule, the pIC50 was 4.70 with SK-BR-3; 4.70 in the assay on KMS-12-PE; 4.70 with NCI-H929; 4.84 in the assay with HCT-15; 4.70 in assay [12]; 4.70 in the assay on NCI-H522. Moreover, in the assay on SK-MEL-28, the negative-log IC50 (pIC50) was 4.70. Besides, the Activity in [2] came to 11%; in assay [6], 6%. Moreover, the inhibition came out at 6.5% in assay [3] and 0.5% in assay [4]. The pKd in assay [5] was under 5.00.
Molecule `C/C=C/Cn1cc(-c2cc(OC)c(C(C)(C)O)cc2OC)c2cc(C)[nH]c2c1=O` showed a pKd in assay [5] of under 5.00.
Consider `C/C=C/Cn1cc(-c2ccc(C(=O)N3CCOCC3)cc2)c2cc[nH]c2c1=O`, for which the pIC50 (in the assay on TOV21G; with 8505C; in assay [7]; with NCI-H2405; in the assay with PANC-03-27; in assay [8]) was 4.70 throughout. In addition, the pIC50 (in the assay on SCC-3; in assay [9]; in [10]; in [1]; in the assay with COLO-800; with NCI-H650) was 4.70 in each case. The pIC50 is 4.70 in the assay with BT-20; 4.70 in the assay with SNG-M; 4.70 in [11]; 4.70 with TK-10; 4.84 in the assay with KARPAS-422; 4.70 in the assay on LN-18. In addition, the pIC50 with SK-BR-3 was 4.70; in the assay with KMS-12-PE, 4.70; with NCI-H929, 5.22; in the assay with HCT-15 it was 4.70; in assay [12], 4.70; in the assay on NCI-H522, 4.70. The molecule further had a pIC50 in the assay on SK-MEL-28 of 4.70. Moreover, the Activity was 7% in [2] and -3% in assay [6]. In addition, the inhibition in assay [3] and in assay [4] was 2.8% each time. For the same molecule, the pKd in assay [5] is 4.59.
